The source of these data is publication PMC4032195 (ACS Chemical Biology, 2014).

pIC50: −log10 of the molar value. A value given as a limit tells only on which side of the number the result lay.

For orientation: IC50 means the midpoint of a concentration-inhibition curve. A lower IC50 goes with higher potency. A word on the pIC50: it is −log10 of the IC50, conventionally taken in molar units.

One assay deals with BRDT-1 (Homo sapiens, UniProt Q58F21). Put plainly: biochemical. In kind it is binding. Particulars: IC50 (μM) BRDT-1, Alpha Screen, KAc-histone H4 peptide (K5/8/12/16Ac).
Another assay relates to VEGFR-1. The note with it: read-out: IC50 VEGFR-1; cited from earlier work.
The next assay concerns VEGFR-2. The note with it: read-out: IC50 VEGFR-2; cited from earlier work.
A further assay deals with BRD4-1 (Homo sapiens, UniProt O60885). Put plainly: biochemical. The assay is classed as binding. The note with it: IC50 (μM) BRD4-1, Alpha Screen, KAc-histone H4 peptide (K5/8/12/16Ac).
Another assay has as its system BET bromodomains. Particulars: cited from earlier work.

In the case of `COc1cc(Nc2nccc(Nc3ccc4c(C)n[nH]c4c3)n2)cc(OC)c1OC` [GW612286X], at BRDT-1, the 50% inhibitory concentration (IC50) was determined as 7.6 µM.

Turning to `Cc1ccc(Nc2nccc(N(C)c3ccc4c(C)n(C)nc4c3)n2)cc1S(N)(=O)=O` [Pazopanib], the pIC50 with VEGFR-1 was 8.00; in the assay with VEGFR-2, […].

`COc1cc(Nc2ncc(F)c(Nc3ccc4c(n3)N(COP(=O)(O)O)C(=O)C(C)(C)O4)n2)cc(OC)c1OC` [Fostamatinib]: the IC50 at BRD4-1 and against BRDT-1 was above 20 µM each time.

`O=c1cc(N2CCOCC2)oc2c(-c3ccccc3)cccc12` [LY294002]: the “inhibition of BET bromodomains” value in the assay on BET bromodomains was “modest inhibitor of BET bromodomains”.
